We go through ten compounds from PubChem BioAssay (NCI).

Among the test systems are SF-268 CNS; RPMI-8226 leukemia; HT29 colon; A549 NSCLC; OVCAR-3 ovarian; K-562 leukemia; CAKI-1 renal; NCI-H23 lung; SNB-75 CNS; COLO 205 colon.
Common to all, as to assay: NCI-60 cell line screen, 48 h

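All cell lines were grown in 96-well plates and treated with compound for 48 hours. Here, GI50 denotes the concentration required for 50% inhibition of growth. TGI denotes the concentration required for complete inhibition of growth.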 Where only a bound is given, the exact number is not on record here.

Consider `CC(O)c1ccc(C(O)/C(=N\NC(=O)c2ccncc2)c2nc3ccc([N+](=O)[O-])cc3[nH]c2=O)cc1` (stereo not given), for which the TGI in the assay on SF-268 CNS, with RPMI-8226 leukemia, with HT29 colon, with A549 NSCLC, in the assay on OVCAR-3 ovarian and with K-562 leukemia was over 100 µM throughout. The TGI in the assay on CAKI-1 renal, in the assay on NCI-H23 lung, with SNB-75 CNS and with COLO 205 colon was over 100 µM in each case.

For `Nc1nc(Cl)nc2c1ncn2C1OC(CO)C(O)C1O` (stereo not given), the GI50 was 10.7 µM with SF-268 CNS; over 100 µM in the assay on RPMI-8226 leukemia; over 93.3 µM in the assay on HT29 colon; 4.41 µM in the assay with A549 NSCLC; over 100 µM with OVCAR-3 ovarian; over 85.3 µM with K-562 leukemia. For the same compound, the GI50 with CAKI-1 renal is 4.3 µM; with NCI-H23 lung, 4.08 µM; with SNB-75 CNS, over 100 µM; in the assay on COLO 205 colon it was 5.76 µM. Further, the TGI in the assay on SF-268 CNS, with RPMI-8226 leukemia, in the assay with HT29 colon, in the assay with A549 NSCLC, with OVCAR-3 ovarian and with K-562 leukemia was over 100 µM each time. For the same compound, the TGI in the assay with CAKI-1 renal, with NCI-H23 lung, with SNB-75 CNS and with COLO 205 colon was over 100 µM each time.

Consider `O=[P+](O)c1cccnc1`, for which the TGI in the assay with SF-268 CNS, with RPMI-8226 leukemia, in the assay on HT29 colon, in the assay on A549 NSCLC, with OVCAR-3 ovarian and with K-562 leukemia was over 100 µM each time. In addition, the TGI in the assay with CAKI-1 renal, with NCI-H23 lung, in the assay with SNB-75 CNS and in the assay on COLO 205 colon was over 100 µM in each case.

Regarding `O=C(O)c1ccccc1C1c2ccc(Cl)cc2Oc2cc(Cl)ccc21`, the TGI in the assay on SF-268 CNS, in the assay with RPMI-8226 leukemia, in the assay with HT29 colon, in the assay on A549 NSCLC, in the assay on OVCAR-3 ovarian and with K-562 leukemia was over 100 µM in each case. Moreover, the TGI in the assay with CAKI-1 renal, with NCI-H23 lung, with SNB-75 CNS and in the assay with COLO 205 colon was over 100 µM in each case.

In the case of `Cc1cc(C)c(C2=NO[C@@H]3C(=O)N(c4ccc(Cc5ccc(N6C(=O)[C@H]7C(c8c(C)cc(C)cc8C)=NO[C@H]7C6=O)cc5)cc4)C(=O)[C@H]23)c(C)c1`, the TGI in the assay with SF-268 CNS, with RPMI-8226 leukemia, in the assay with HT29 colon, in the assay on A549 NSCLC, in the assay with OVCAR-3 ovarian and in the assay with K-562 leukemia was over 100 µM in each case. The TGI in the assay on CAKI-1 renal, in the assay on NCI-H23 lung, in the assay with SNB-75 CNS and in the assay on COLO 205 colon was over 100 µM each time.

In the case of `O=C(Nc1ccc(Cl)cc1)c1cc2ccccc2cc1OP(=O)(O)O`, the GI50 in the assay with SF-268 CNS was 3.9 µM; in the assay on RPMI-8226 leukemia, 1.52 µM; in the assay with HT29 colon it was 28.9 µM; with A549 NSCLC, 4.85 µM; in the assay with OVCAR-3 ovarian it was 3.22 µM; with K-562 leukemia, 53.8 µM. The GI50 is 1.77 µM with CAKI-1 renal, 2.42 µM in the assay with NCI-H23 lung, 2.03 µM in the assay on SNB-75 CNS and 14.5 µM in the assay with COLO 205 colon. The TGI is 40 µM in the assay with SF-268 CNS; 6.02 µM in the assay with RPMI-8226 leukemia; over 100 µM in the assay with HT29 colon; over 100 µM with A549 NSCLC; 11.2 µM with OVCAR-3 ovarian; over 100 µM in the assay with K-562 leukemia. Moreover, the TGI in the assay on CAKI-1 renal was 11.1 µM; in the assay on NCI-H23 lung, 9.95 µM; with SNB-75 CNS it was 25.2 µM; with COLO 205 colon, 27.8 µM.

For `O=C(c1ccccc1)c1c2n(c3c1cc(O)c1ccccc13)CCN2`, the GI50 in the assay on SF-268 CNS was 3.19 µM; in the assay on RPMI-8226 leukemia, 2.42 µM; in the assay with HT29 colon, 3.67 µM; in the assay on A549 NSCLC, 14.2 µM; with OVCAR-3 ovarian it was 2.23 µM; with K-562 leukemia, 2.56 µM. In addition, the GI50 with CAKI-1 renal was 11.1 µM; with NCI-H23 lung, 4.17 µM; in the assay with SNB-75 CNS, 2.22 µM; in the assay on COLO 205 colon, 1.8 µM. Further, the TGI with SF-268 CNS worked out at 9.85 µM; in the assay on RPMI-8226 leukemia, 6.47 µM; in the assay with HT29 colon, 15.5 µM; in the assay with A549 NSCLC it was 35.5 µM; in the assay on OVCAR-3 ovarian, 7.82 µM; in the assay on K-562 leukemia, 8.2 µM. Further, the TGI stood at 52.5 µM in the assay on CAKI-1 renal, 12 µM in the assay on NCI-H23 lung, 4.76 µM in the assay with SNB-75 CNS and 3.31 µM in the assay with COLO 205 colon.

In the case of `Cc1nc(-n2nc(-c3ccccc3)cc2-c2ccccc2)sc1C(/C=C/c1ccc([N+](=O)[O-])cc1)=N/NC(N)=S`, the TGI is over 100 µM in the assay with SF-268 CNS; 45 µM with RPMI-8226 leukemia; over 100 µM in the assay with HT29 colon; over 100 µM in the assay with A549 NSCLC; over 100 µM in the assay with OVCAR-3 ovarian; 62.7 µM in the assay on K-562 leukemia. In addition, the TGI with CAKI-1 renal, in the assay with NCI-H23 lung, with SNB-75 CNS and in the assay on COLO 205 colon was over 100 µM each time.

On to `Cc1ccc(S(=O)(=O)OC2CSSCC2OS(=O)(=O)c2ccc(C)cc2)cc1` (stereo not given), for which the TGI with SF-268 CNS was 31.9 µM; in the assay with RPMI-8226 leukemia it was 46.3 µM; with HT29 colon, 22 µM; in the assay with A549 NSCLC it was 31.9 µM; in the assay on OVCAR-3 ovarian, 26.2 µM; in the assay with K-562 leukemia, 47.6 µM. Moreover, the TGI with CAKI-1 renal amounted to 26.1 µM; in the assay on NCI-H23 lung, 33.3 µM; with SNB-75 CNS, 28.1 µM; with COLO 205 colon, 26.6 µM.

`COC(=O)[C@H](C)[C@@H]1CC[C@](C)(CCC2=C(C)CCCC2(C)C)OO1`: the TGI with SF-268 CNS, in the assay with RPMI-8226 leukemia, with HT29 colon, in the assay with A549 NSCLC, with OVCAR-3 ovarian and in the assay on K-562 leukemia was over 25 µM throughout. Also, the TGI in the assay on CAKI-1 renal, with NCI-H23 lung, in the assay on SNB-75 CNS and with COLO 205 colon was over 25 µM throughout.
